# Data published in patent US20250177481A1, “SCO-spondin-derived polypeptides for enhancing synaptic transmission” (AXOLTIS PHARMA, priority 2021, published 2025).
# Positions of bridges follow the written chain, without caps; N, C: chain ends. No end group written: not given here.
# Tested on: AMPAr currents in hippocampal CA1 pyramidal neurons
# Experiment: whole-cell patch-clamp, isolated AMPAr EPSCs evoked by Schaffer collateral stimulation (series 2)
# Format: cell-based, C57Bl6/J mice
# Details: after 10 min wash-out of NX218 250 μg/mL (T30); mean of 10 neurons
# Excerpt: Twelve (C57Bl6/J) male mice 4-5 weeks-old were obtained from Charles River, France and housed in an animal facility. Animal care was compliant with national and local Ethics committee recommendations. Sagittal hippocampal brain slices were obtained using standard brain slicing methods (approximately 6 slices per mouse) (Knobloch et al. 2007). Mice were anesthetized with isoflurane and then decapitated. Brain was dissected out of the cranium and immediately immersed in ice-cold freshly prepared aCSF containing: 124 mM NaCl, 3.75 mM KCl, 2 mM MgSO4, 2 mM CaCl2, 26.5 mM NaHCO3, 1.25 mM NaH2PO4, 10 mM glucose, continuously oxygenated (pH=7.4) for a total duration of 3-4 minutes. Acute slices (350 μm thick) were prepared using a vibratome (VT 1000S; Leica Microsystems, Bannockburn, IL). Sections were incubated in standard aCSF at room temperature for at least 1 h before recordings. […]
# The signal was amplified with an Axopatch 200B amplifier (Molecular Devices, Union City, CA), digitized by a Digidata 1550 interface (Molecular Devices) and […]. Recordings were acquired using Clampex (Molecular Devices) and analyzed with Clampfit (Molecular Devices). […]
substance,measurement,value
W-S-G-W-S-S-C-S-R-S-C-G [NX218] (WSGWSSCSRSCG; disulfide 7-11 (inferred)),Amplitude of evoked isolated AMPA excitatory postsynaptic currents,153 pA
